Reference: patent publication US10100064B2, “Purine inhibitors of human phosphatidylinositol 3-kinase delta” (Merck Sharp & Dohme Corp., priority 2014, dated 2018)

How the values were obtained:
[1] = target: T1, PI3Kdelta (Homo sapiens, UniProt O00329); assay: HTRF PI3K biochemical assay, delta isoform; conditions: 0.3 nM enzyme, 100 uM ATP, 5 uM PIP2, form screened (Neutral or TFA salt) given per compound
T1 construct: purchased Upstate; Millipore 14-604
Summary of the method: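 PI3Kδ at 0.3 nM with 100 uM ATP and 5 uM PIP2, 10-point 3-fold dilutions, 15 min enzyme–compound pre-incubation, then 1 h reaction at room temperature. PIP3 formation detected by HTRF displacement of biotin-PIP3 from GST-GRP1-PH (665/620 nm ratio). IC50 corrected using a PIP3 standard curve.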

[2] = target: T2, PI3Kalpha (Homo sapiens, UniProt P42336); assay: HTRF PI3K biochemical assay, alpha isoform (selectivity versus delta); conditions: relative ratio PI3K-alpha IC50 value / PI3K-delta IC50 value
T2 construct: purchased Upstate; Millipore 14-602
Summary of the method: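 Recombinant PI3Kα (0.5 nM) pre-incubated 15 min with compound, then reacted 1 h at room temperature with 5 μM PIP2 and 100 μM ATP. After EDTA stop, PIP3 measured by HTRF displacement of biotin-PIP3 from GST-GRP1 PH domain (665/620 nm). 10-point dose response; IC50 corrected using a PIP3 standard curve.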

T1 sequence (O00329 whole entry, canonical isoform): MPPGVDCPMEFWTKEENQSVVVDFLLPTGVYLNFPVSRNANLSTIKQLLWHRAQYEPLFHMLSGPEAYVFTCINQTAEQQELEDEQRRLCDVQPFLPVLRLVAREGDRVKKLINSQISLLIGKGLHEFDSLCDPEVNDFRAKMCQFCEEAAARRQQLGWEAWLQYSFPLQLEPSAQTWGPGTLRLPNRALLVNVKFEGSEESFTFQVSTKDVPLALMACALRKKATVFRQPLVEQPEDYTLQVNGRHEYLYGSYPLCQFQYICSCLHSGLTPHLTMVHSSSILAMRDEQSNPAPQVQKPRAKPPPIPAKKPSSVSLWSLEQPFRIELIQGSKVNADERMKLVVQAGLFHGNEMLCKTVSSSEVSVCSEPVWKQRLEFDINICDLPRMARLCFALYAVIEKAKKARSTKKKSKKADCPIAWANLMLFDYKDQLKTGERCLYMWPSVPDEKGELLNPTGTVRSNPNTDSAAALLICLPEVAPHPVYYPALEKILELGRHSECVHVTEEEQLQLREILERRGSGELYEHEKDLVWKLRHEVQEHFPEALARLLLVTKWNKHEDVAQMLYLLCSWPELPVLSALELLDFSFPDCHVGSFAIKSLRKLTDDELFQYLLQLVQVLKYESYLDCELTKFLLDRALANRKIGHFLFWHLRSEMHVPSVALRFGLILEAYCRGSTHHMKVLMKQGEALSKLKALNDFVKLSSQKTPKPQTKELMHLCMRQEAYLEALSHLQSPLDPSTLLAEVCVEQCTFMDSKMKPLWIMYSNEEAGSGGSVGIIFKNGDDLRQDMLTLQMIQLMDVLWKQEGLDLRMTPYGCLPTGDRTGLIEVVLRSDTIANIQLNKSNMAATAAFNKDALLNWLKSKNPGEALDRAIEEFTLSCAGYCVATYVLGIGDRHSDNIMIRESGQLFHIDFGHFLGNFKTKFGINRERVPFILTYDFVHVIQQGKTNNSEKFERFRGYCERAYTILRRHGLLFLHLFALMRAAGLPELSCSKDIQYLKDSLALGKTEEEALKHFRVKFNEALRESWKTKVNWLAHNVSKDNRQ
T1 sequence (P27986 whole entry partner, canonical isoform): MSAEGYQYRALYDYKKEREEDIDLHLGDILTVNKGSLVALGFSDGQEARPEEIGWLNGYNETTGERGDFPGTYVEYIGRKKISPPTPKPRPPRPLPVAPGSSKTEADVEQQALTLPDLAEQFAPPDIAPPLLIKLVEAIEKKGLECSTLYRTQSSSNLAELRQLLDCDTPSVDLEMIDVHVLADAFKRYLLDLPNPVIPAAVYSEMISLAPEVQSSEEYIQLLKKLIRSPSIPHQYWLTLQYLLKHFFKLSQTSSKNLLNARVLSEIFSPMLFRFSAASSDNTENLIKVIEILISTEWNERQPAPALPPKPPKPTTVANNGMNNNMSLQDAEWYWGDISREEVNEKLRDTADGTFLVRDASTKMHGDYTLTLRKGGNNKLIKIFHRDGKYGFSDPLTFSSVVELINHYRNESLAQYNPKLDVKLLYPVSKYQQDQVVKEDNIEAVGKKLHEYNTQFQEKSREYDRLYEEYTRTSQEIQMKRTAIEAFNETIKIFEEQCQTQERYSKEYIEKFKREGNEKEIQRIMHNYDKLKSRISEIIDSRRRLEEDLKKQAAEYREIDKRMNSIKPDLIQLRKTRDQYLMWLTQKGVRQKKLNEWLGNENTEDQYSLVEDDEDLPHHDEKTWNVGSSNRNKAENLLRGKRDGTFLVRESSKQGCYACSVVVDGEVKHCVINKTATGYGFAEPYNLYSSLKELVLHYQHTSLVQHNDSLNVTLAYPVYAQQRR
T2 sequence (P42336 whole entry, canonical isoform): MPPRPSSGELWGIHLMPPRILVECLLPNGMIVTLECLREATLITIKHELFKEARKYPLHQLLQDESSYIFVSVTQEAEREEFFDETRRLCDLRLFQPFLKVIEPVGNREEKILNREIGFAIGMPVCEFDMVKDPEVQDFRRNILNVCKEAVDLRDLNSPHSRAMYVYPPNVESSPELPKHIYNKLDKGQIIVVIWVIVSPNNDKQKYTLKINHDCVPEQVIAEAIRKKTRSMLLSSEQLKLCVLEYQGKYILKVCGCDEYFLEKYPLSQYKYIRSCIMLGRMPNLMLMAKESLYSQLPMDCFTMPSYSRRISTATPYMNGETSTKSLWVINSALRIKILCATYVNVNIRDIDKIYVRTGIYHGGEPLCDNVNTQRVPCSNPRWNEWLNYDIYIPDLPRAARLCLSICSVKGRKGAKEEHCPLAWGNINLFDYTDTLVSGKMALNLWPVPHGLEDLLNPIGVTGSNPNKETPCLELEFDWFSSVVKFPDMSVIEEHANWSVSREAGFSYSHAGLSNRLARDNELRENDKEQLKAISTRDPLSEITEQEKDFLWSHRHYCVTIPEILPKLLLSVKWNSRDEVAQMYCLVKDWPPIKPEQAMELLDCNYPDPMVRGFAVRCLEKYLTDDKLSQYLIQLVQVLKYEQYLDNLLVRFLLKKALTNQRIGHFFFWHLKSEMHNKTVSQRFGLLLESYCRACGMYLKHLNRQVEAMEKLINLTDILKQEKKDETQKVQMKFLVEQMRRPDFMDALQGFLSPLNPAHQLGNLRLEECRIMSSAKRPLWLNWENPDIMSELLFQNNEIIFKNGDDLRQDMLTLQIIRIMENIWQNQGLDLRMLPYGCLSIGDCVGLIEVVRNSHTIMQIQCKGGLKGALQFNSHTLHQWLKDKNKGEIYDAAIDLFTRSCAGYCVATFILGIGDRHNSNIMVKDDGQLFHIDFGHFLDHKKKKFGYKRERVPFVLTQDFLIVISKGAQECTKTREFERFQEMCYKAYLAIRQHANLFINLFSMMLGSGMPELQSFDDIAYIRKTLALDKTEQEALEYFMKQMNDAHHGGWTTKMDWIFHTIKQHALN
T2 sequence (P27986 whole entry partner, canonical isoform): as the sequence (P27986 whole entry partner, canonical isoform) above

With CCn1c(-c2ccc(C(F)(F)F)cc2)nc2c(NC3CCc4ncn(C5CC5)c4C3)ncnc21 (single isomer, unassigned) [Compound 5-5, (S or R)-N-(1-cyclopropyl-4,5,6,7-tetrahydro-1H-benzimidazol-6-yl)-9-ethyl-8-[4-(trifluoromethyl)phenyl]-9H-purin-6-amine] the IC50 [1] was 0.0051 µM and the “Selectivity versus PI3Kalpha” value [2] was greater than 10.
With CCn1c(C(F)F)nc2c(NC3CCc4ncn(C5CC5)c4C3)ncnc21 (single isomer, unassigned) [Compound 5-6, (S or R)-N-(1-cyclopropyl-4,5,6,7-tetrahydro-1H-benzimidazol-6-yl)-8-(difluoromethyl)-9-ethyl-9H-purin-6-amine] the IC50 [1] was 0.17 µM and the “Selectivity versus PI3Kalpha” value [2] was greater than 10.
CCn1c(-c2cnc(C)nc2)nc2c(NC3CCc4nc(C)n(C5CC5)c4C3)ncnc21 (single isomer, unassigned) [Compound 5-7, (S or R)-N-(1-cyclopropyl-2-methyl-4,5,6,7-tetrahydro-1H-benzimidazol-6-yl)-9-ethyl-8-(2-methylpyrimidin-5-yl)-9H-purin-6-amine] was tested, and the IC50 [1] was 0.019 µM and the “Selectivity versus PI3Kalpha” value [2] was greater than 10.
In the case of CCc1nc2c(n1C1CC1)CC(Nc1ncnc3c1nc(-c1cnc(C)nc1)n3CC)CC2 (single isomer, unassigned) [Compound 5-8, (S or R)-N-(1-cyclopropyl-2-ethyl-4,5,6,7-tetrahydro-1H-benzimidazol-6-yl)-9-ethyl-8-(2-methylpyrimidin-5-yl)-9H-purin-6-amine], the IC50 [1] is reported as 0.021 µM and the “Selectivity versus PI3Kalpha” value [2] is reported as greater than 10.
For CCn1c(C(=O)NCC(F)(F)F)nc2c(NC3CCc4ncn(C5CC5)c4C3)ncnc21 (single isomer, unassigned) [Compound 5-9, (S or R)-6-[(1-cyclopropyl-4,5,6,7-tetrahydro-1H-benzimidazol-6-yl)amino]-9-ethyl-N-(2,2,2-trifluoroethyl)-9H-purine-8-carboxamide], the IC50 [1] was 0.051 µM and the “Selectivity versus PI3Kalpha” value [2] was greater than 10.
CCn1c(-c2cnc(C)nc2)nc2c(NC3CCc4nc(C(F)F)n(C5CC5)c4C3)ncnc21 (single isomer, unassigned) [Compound 5-10, (S or R)-N-[1-cyclopropyl-2-(difluoromethyl)-4,5,6,7-tetrahydro-1H-benzimidazol-6-yl]-9-ethyl-8-(2-methylpyrimidin-5-yl)-9H-purin-6-amine] was tested, and the IC50 [1] was less than 0.001 µM and the “Selectivity versus PI3Kalpha” value [2] was greater than 10.
With CCn1c(-c2cnc(C)nc2)nc2c(NC3CCc4nc(C(F)F)n(C5CC5)c4C3)ncnc21 (single isomer, unassigned) [Compound 5-11, (S or R)-N-[1-cyclopropyl-2-(difluoromethyl)-4,5,6,7-tetrahydro-1H-benzimidazol-6-yl]-9-ethyl-8-(2-methylpyrimidin-5-yl)-9H-purin-6-amine] the IC50 [1] was 0.04 µM and the “Selectivity versus PI3Kalpha” value [2] was greater than 10.
For CCn1c(-c2cnc(C)nc2)nc2c(NC3CCc4ncn([C@H]5C[C@@H](OC)C5)c4C3)ncnc21 (single isomer, unassigned) [Compound 5-13, (S or R)-9-ethyl-N-[1-(cis-3-methoxycyclobutyl)-4,5,6,7-tetrahydro-1H-benzimidazol-6-yl]-8-(2-methylpyrimidin-5-yl)-9H-purin-6-amine], the IC50 [1] was 0.0047 µM and the “Selectivity versus PI3Kalpha” value [2] was greater than 10.
CCn1c(-c2cnc(C)nc2)nc2c(NC3CCc4ncn([C@H]5C[C@@H](OC)C5)c4C3)ncnc21 (single isomer, unassigned) [Compound 5-14, (S or R)-9-ethyl-N-[1-(cis-3-methoxycyclobutyl)-4,5,6,7-tetrahydro-1H-benzimidazol-6-yl]-8-(2-methylpyrimidin-5-yl)-9H-purin-6-amine] was tested, and the IC50 [1] was 0.23 µM and the “Selectivity versus PI3Kalpha” value [2] was greater than 10.
With CCn1c(-c2cnc(C)nc2)nc2c(NC3CCc4ncn(C(C)C)c4C3)ncnc21 (single isomer, unassigned) [Compound 5-15, (S or R)-9-ethyl-N-[1-(1-methylethyl)-4,5,6,7-tetrahydro-1H-benzimidazol-6-yl]-8-(2-methylpyrimidin-5-yl)-9H-purin-6-amine] the IC50 [1] was 0.0042 µM and the “Selectivity versus PI3Kalpha” value [2] was greater than 10.
For CCn1c(-c2cnc(C)nc2)nc2c(NC3CCc4ncn(C(C)C)c4C3)ncnc21 (single isomer, unassigned) [Compound 5-16, (S or R)-9-ethyl-N-[1-(1-methylethyl)-4,5,6,7-tetrahydro-1H-benzimidazol-6-yl]-8-(2-methylpyrimidin-5-yl)-9H-purin-6-amine], the IC50 [1] was 0.384 µM and the “Selectivity versus PI3Kalpha” value [2] was greater than 10.
With CCn1c(-c2cnc(C)nc2)nc2c(NC3Cc4c(ncn4C(C)C)C(C)C3)ncnc21 (single isomer, unassigned) [Compound 5-17, 9-ethyl-N-[(4(S or R), 6(S or R)-4-methyl-1-(1-methylethyl)-4,5,6,7-tetrahydro-1H-benzimidazol-6-yl]-8-(2-methylpyrimidin-5-yl)-9H-purin-6-amine] the IC50 [1] was 0.009 µM and the “Selectivity versus PI3Kalpha” value [2] was greater than 10.
For CCn1c(-c2cnc(C)nc2)nc2c(NC3Cc4c(ncn4C(C)C)C(C)C3)ncnc21 (single isomer, unassigned) [Compound 5-18, 9-ethyl-N-[(4(S or R), 6(S or R)-4-methyl-1-(1-methylethyl)-4,5,6,7-tetrahydro-1H-benzimidazol-6-yl]-8-(2-methylpyrimidin-5-yl)-9H-purin-6-amine], the IC50 [1] was 0.51 µM and the “Selectivity versus PI3Kalpha” value [2] was greater than 10.
For CCn1c(-c2cnc(C)nc2)nc2c(NC3Cc4c(ncn4C(C)C)CC3C)ncnc21 (single isomer, unassigned) [Compound 5-19, 9-ethyl-N-[cis-5-methyl-1-(1-methylethyl)-4,5,6,7-tetrahydro-1H-benzimidazol-6-yl]-8-(2-methylpyrimidin-5-yl)-9H-purin-6-amine], the IC50 [1] was 0.0017 µM and the “Selectivity versus PI3Kalpha” value [2] was greater than 10.
With CCn1c(-c2cnc(C)nc2)nc2c(NC3Cc4c(ncn4C(C)C)CC3C)ncnc21 (single isomer, unassigned) [Compound 5-20, 9-ethyl-N-[trans-5-methyl-1-(1-methylethyl)-4,5,6,7-tetrahydro-1H-benzimidazol-6-yl]-8-(2-methylpyrimidin-5-yl)-9H-purin-6-amine] the IC50 [1] was 0.12 µM and the “Selectivity versus PI3Kalpha” value [2] was greater than 10.
In the case of CCn1c(-c2cnc(C)nc2)nc2c(NC3CCc4ncn(C(C)C)c4C3C)ncnc21 (single isomer, unassigned) [Compound 5-21, 9-ethyl-N-[((6S, 7S) or (6R, 7R))-7-methyl-1-(1-methylethyl)-4,5,6,7-tetrahydro-1H-benzimidazol-6-yl]-8-(2-methylpyrimidin-5-yl)-9H-purin-6-amine], the IC50 [1] is reported as 0.0057 µM and the “Selectivity versus PI3Kalpha” value [2] is reported as greater than 10.
For CCn1c(-c2cnc(C)nc2)nc2c(NC3CCc4ncn(C(C)C)c4C3C)ncnc21 (single isomer, unassigned) [Compound 5-22, 9-ethyl-N-[((6S, 7S) or (6R, 7R))-7-methyl-1-(1-methylethyl)-4,5,6,7-tetrahydro-1H-benzimidazol-6-yl]-8-(2-methylpyrimidin-5-yl)-9H-purin-6-amine], the IC50 [1] was 0.26 µM and the “Selectivity versus PI3Kalpha” value [2] was greater than 10.
In the case of CCn1c(-c2cnc(C)nc2)nc2c(NC3CCn4cnc(C(C)C)c4C3)ncnc21 (single isomer, unassigned) [Compound 6-1, (S or R)-9-ethyl-N-[1-(1-methylethyl)-5,6,7,8-tetrahydroimidazo[1,5-a]pyridin-7-yl]-8-(2-methylpyrimidin-5-yl)-9H-purin-6-amine], the IC50 [1] is reported as 0.01 µM and the “Selectivity versus PI3Kalpha” value [2] is reported as greater than 10.
In the case of CCn1c(-c2cnc(C)nc2)nc2c(N[C@H]3Cc4nnc(C5CC5)n4C3)ncnc21 [Compound 1-38, N-[(6S)-3-cyclopropyl-6,7-dihydro-5H-pyrrolo[2,1-c][1,2,4]triazol-6-yl]-9-ethyl-8-(2-methylpyrimidin-5-yl)-9H-purin-6-amine], the IC50 [1] is reported as 0.005 µM and the “Selectivity versus PI3Kalpha” value [2] is reported as greater than 10.
